# Measurements: PMC11890061 (2025)
# What was measured:
# [1] = tested on: FAM-D-(UG)12 (RNA, G4) UGUGUGUGUGUGUGUGUGUGUGUG; assay: EMSA competition; conditions: 150 mM KCl, 1 mM MgCl2; 25 mM Tris-HCl pH 7.5, 37 °C; 250 nM L-apt3.1 (L-RNA aptamer) displaced; 10 nM RNA
# [2] = tested on: FAM-D-(UG)12 mut1 (RNA, single strand) UGUAUGUGUAUGUGUAUGUGUAUG; assay: NMM staining of native gel; conditions: 150 mM KCl (gel: 50 mM potassium acetate); 10 mM Tris-HCl pH 7.5; 2.5 μM oligo; 1 μg/mL NMM highest tested; no band
# [3] = tested on: FAM-D-(UG)12 mut2 (RNA, single strand) UGUGCGUGUGCGUGUGCGUGUGCG; assay: NMM staining of native gel; conditions: 150 mM KCl (gel: 50 mM potassium acetate); 10 mM Tris-HCl pH 7.5; 2.5 μM oligo; 1 μg/mL NMM highest tested; no band
# [4] = tested on: FAM-D-(TG)12 (DNA, single strand) TGTGTGTGTGTGTGTGTGTGTGTG; assay: NMM staining of native gel; conditions: 150 mM KCl (gel: 50 mM potassium acetate); 10 mM Tris-HCl pH 7.5; 2.5 μM oligo; 1 μg/mL NMM highest tested; no band
# [5] = tested on: D-apt3.1 (RNA, aptamer) GCCGCACUGGUGGGUCGGUGGGAAGCGGC; assay: ligand fluorescence enhancement; conditions: 150 mM KCl; 10 mM LiCaco pH 7.0; 1 μM RNA, 1 μM ligand; higher in K+ than Li+
# [6] = tested on: L-apt3.1 (L-RNA, aptamer, all L-ribonucleotides) GCCGCACUGGUGGGUCGGUGGGAAGCGGC; assay: ligand fluorescence enhancement; conditions: 150 mM KCl; 10 mM LiCaco pH 7.0; 1 μM RNA, 1 μM ligand; higher in K+ than Li+
# [7] = tested on: D-apt3.1b (RNA, aptamer) GCCGCACUUCUGGGGGGGUGGGAAGCGGC; assay: ligand fluorescence enhancement; conditions: 150 mM KCl; 10 mM LiCaco pH 7.0; 1 μM RNA, 1 μM ligand; higher in K+ than Li+
# [8] = tested on: D-apt3.1e (RNA, aptamer) GCCGCAAUGGUGGGUAGGUGGGAAGCGGC; assay: ligand fluorescence enhancement; conditions: 150 mM KCl; 10 mM LiCaco pH 7.0; 1 μM RNA, 1 μM ligand; higher in K+ than Li+
# [9] = tested on: D-apt3.1g (RNA, aptamer) GCCGCACUGGCGGGUCGGUGGGAAGCGGC; assay: ligand fluorescence enhancement; conditions: 150 mM KCl; 10 mM LiCaco pH 7.0; 1 μM RNA, 1 μM ligand; higher in K+ than Li+
# [10] = tested on: D-apt3.1h (RNA, aptamer) GCCGCACUGGUGGGUCGGUGGGGAGCGGC; assay: ligand fluorescence enhancement; conditions: 150 mM KCl; 10 mM LiCaco pH 7.0; 1 μM RNA, 1 μM ligand; higher in K+ than Li+
# [11] = tested on: D-apt3.1i (RNA, aptamer) GCCGCACUGGUGGGUCGGUGGGAGGCGGC; assay: ligand fluorescence enhancement; conditions: 150 mM KCl; 10 mM LiCaco pH 7.0; 1 μM RNA, 1 μM ligand; higher in K+ than Li+
# [12] = tested on: D-(UG)12 (RNA, G4) UGUGUGUGUGUGUGUGUGUGUGUG; assay: fluorescence titration (microplate reader); conditions: 150 mM KCl, 1 mM MgCl2; 25 mM Tris-HCl pH 7.5, 37 °C; 100 nM NMM, RNA varied; one-site fit
smiles,measurement,setting,value
CCc1c(C)c2cc3nc(cc4nc(cc5c(CC)c(C)c(cc1[nH]2)n5C)C(C)=C4CCC(=O)O)C(CCC(=O)O)=C3C,IC50,[1],10.7 ± 1.1 µM
same,binding,[2],no
same,binding,[3],no
same,binding,[4],no
same,binding,[5],yes
same,binding,[6],yes
same,binding,[7],yes
same,binding,[8],yes
same,binding,[9],yes
same,binding,[10],yes
same,binding,[11],yes
same,Kd,[12],0.3774 ± 0.1006 µM
Cc1ccc2c(c1)sc(-c1ccc(N(C)C)cc1)[n+]2C,binding,[5],yes
same,binding,[6],yes
